Values quoted from earlier work, collected in patent US11766458B2, “Method and a dietary composition on regulation, treatment, and prevention of obesity” (priority 2021, dated 2023).

Legend:
[1] = Nutrition & Diabetes volume 11, Article number: 3, 2021

| SMILES | GLP-1 secretion (DIO C57BL/6 mice; oral 1 g/kg 15 minutes before OGTT) | Glucose resistance (DIO C57BL/6 mice; oral 1 g/kg 15 minutes before OGTT (2 g glucose/kg bw)) | Energy intake (food diary) (after L-arginine treatment) | Release of plasma PYY (healthy people, oral 17.1 mmol, after unlimited meals, p<0.001) | Release of plasma GLP-1 (healthy people, oral 17.1 mmol, after unlimited meals, p<0.05) | Gastric emptying [1] |
| --- | --- | --- | --- | --- | --- | --- |
| N=C(N)NCCC[C@H](N)C(=O)O [L-arginine] | induces GLP-1 secretion | improves glucose resistance | less energy intake | stimulated | stimulated | – |
| N[C@@H](Cc1c[nH]c2ccccc12)C(=O)O [tryptophan] | – | – | – | – | – | delays the gastric emptying |
